Common to all, as to assay: microbe, parasite or virus in culture
The subject of assay [1] is B. subtilis ATCC 6633. As for the experimental part:
(§1) The L-peptides identified from five different phage display libraries were catalogued as described previously and selected sequences were synthesized in D-enantiomeric form by SPPS for further investigation in several biological assays.
(§2) MICs were determined according to a 96-well microdilution protocol outlined by the Clinical and Laboratory Standard Institute (CLSI) guideline with modifications for peptide antibiotics reported by Wiegand et al.^35 Two-fold serial peptide dilutions were performed to go from 2560 μg/ml to 5 μg/ml in0.2% BSA and 0.01% acetic acid buffer in 96-well polypropylene plates (COSTAR, #3879). Dilution of bacterial suspensions (1:200) of different bacterial strains that were grown until 0.5 McFarland standard were prepared to obtain a final inoculum concentration of 8×10^5 CFU/ml in Mueller-Hinton broth.

Assay [2] relates to E. faecalis ATCC 29121. As for the experimental part:
as §1, §2

For assay [3], the system named is Methicillin-resistant S. aureus (MRSA) ATCC 43300. The protocol: as §1, §2
The subject of assay [4] is low level vancomycin resistant E. faecium (vanB) ATCC 51299. The conditions noted are these: Table 5; low level vancomycin resistant E. faecium ATCC 51299. The protocol:
as §1, §2

Assay [5] deals with E. coli ATCC 25992. As for the experimental part:
as §1, §2

Assay [6] relates to S. aureus ATCC 6538. The protocol: as §1, §2
Assay [7] relates to high level vancomycin resistant E. faecium (vanA) ATCC 51559. The protocol:
as §1, §2

Converted amounts (≈) assume the structure as drawn. Bridge positions count the residues as written; N and C are the ends. Square brackets hold non-standard residues; d marks the D form. Peptide text beside a SMILES is read from it. A value given as a limit tells only on which side of the number the result lay.

As to `CC(C)C[C@@H](NC(=O)[C@@H](Cc1ccccc1)NC(=O)CNC(=O)[C@H](N)[C@H](C)O)C(=O)N[C@@H](C(=O)N[C@H](CC(N)=O)C(=O)N[C@@H](C(N)=O)C(C)C)C(C)C` [P7, TGFLVNV] (H-[dT]G[dF][dL][dV][dN][dV]-NH2), the “MIC B. subtilis” value in assay [1] (ATCC 6633) worked out at 32 µg/mL (≈ 42.8 µM). For the same molecule, the “MIC E. faecalis” value in assay [2] (ATCC 29121) is more than 256 µg/mL. In addition, the “MIC MRSA” value in assay [3] (ATCC 43300) was more than 256 µg/mL. For the same molecule, in assay [4], the “MIC VRE (vanB)” value was more than 256 µg/mL. The “MIC E. coli” value in assay [5] (ATCC 25992) was more than 256 µg/mL. The “MIC S. aureus” value in assay [6] (ATCC 6538) was 64 µg/mL (≈ 85.6 µM). Further, the “MIC VRE (vanA)” value in assay [7] (ATCC 51559) is more than 256 µg/mL.

Regarding `CC(C)C[C@H]1NC(=O)[C@H](N)CSSC[C@H](C(N)=O)NC(=O)[C@@H](Cc2c[nH]c3ccccc23)NC(=O)[C@@H](CCCCN)NC(=O)[C@@H](CCC(=O)O)NC(=O)CNC(=O)[C@@H](CC(C)C)NC(=O)[C@@H](CCCCN)NC1=O` [P9, CLKLGEKWC] (H-[dC][dL][dK][dL]G[dE][dK][dW][dC]-NH2; disulfide 1-9), in assay [1] (ATCC 6633), the “MIC B. subtilis” value worked out at 32 µg/mL (≈ 29.7 µM). For the same molecule, the “MIC E. faecalis” value in assay [2] (ATCC 29121) came out at 64 µg/mL (≈ 59.5 µM). In addition, the “MIC MRSA” value in assay [3] (ATCC 43300) is 64 µg/mL (≈ 59.5 µM). Besides, in assay [4], the “MIC VRE (vanB)” value was more than 256 µg/mL. The “MIC E. coli” value in assay [5] (ATCC 25992) is more than 256 µg/mL. The “MIC S. aureus” value in assay [6] (ATCC 6538) was 64 µg/mL (≈ 59.5 µM). The “MIC VRE (vanA)” value in assay [7] (ATCC 51559) is more than 256 µg/mL.

For the molecule `CSCC[C@H]1NC(=O)[C@H]2CCCN2C(=O)[C@@H]([C@H](C)O)NC(=O)[C@@H](C)NC(=O)CNC(=O)[C@@H](CCCNC(=N)N)NC(=O)[C@H](N)CSSC[C@H](C(N)=O)NC(=O)[C@@H](CO)NC1=O` [P10, CRGATPMSC] (H-[dC][dR]G[dA][dT][dP][dM][dS][dC]-NH2; disulfide 1-9), the “MIC B. subtilis” value in assay [1] (Table 5, B. subtilis ATCC 6633) is 128 µg/mL (≈ 139 µM). Moreover, the “MIC E. faecalis” value in assay [2] (Table 5, E. faecalis ATCC 29121) came out at 256 µg/mL (≈ 278 µM). In addition, in assay [3] (Table 5, MRSA ATCC 43300), the “MIC MRSA” value is 128 µg/mL (≈ 139 µM). For the same molecule, the “MIC VRE (vanB)” value in assay [4] was more than 256 µg/mL. Moreover, the “MIC E. coli” value in assay [5] (Table 5, E. coli ATCC 25992) is more than 256 µg/mL. For the same molecule, the “MIC S. aureus” value in assay [6] (Table 5, S. aureus ATCC 6538) stood at 128 µg/mL (≈ 139 µM). In addition, the “MIC VRE (vanA)” value in assay [7] (Table 5, high level vancomycin resistant E. faecium ATCC 51559) is more than 256 µg/mL.

With `CC[C@@H](C)[C@H]1NC(=O)[C@@H](CO)NC(=O)[C@H](N)CSSC[C@H](C(N)=O)NC(=O)[C@@H](Cc2c[nH]cn2)NC(=O)[C@@H]([C@H](C)O)NC(=O)[C@@H](CC(C)C)NC(=O)[C@@H](CO)NC(=O)[C@@H](CO)NC1=O` [P11, CSISSLTHC] (H-[dC][dS][dI][dS][dS][dL][dT][dH][dC]-NH2; disulfide 1-9), the “MIC B. subtilis” value in assay [1] (ATCC 6633) is 32 µg/mL (≈ 33.8 µM). For the same molecule, the “MIC E. faecalis” value in assay [2] (ATCC 29121) came to 32 µg/mL (≈ 33.8 µM). For the same molecule, the “MIC MRSA” value in assay [3] (ATCC 43300) worked out at 64 µg/mL (≈ 67.6 µM). For the same molecule, the “MIC VRE (vanB)” value in assay [4] was 64 µg/mL (≈ 67.6 µM). In assay [5] (ATCC 25992), the “MIC E. coli” value was more than 256 µg/mL. In addition, the “MIC S. aureus” value in assay [6] (ATCC 6538) was found to be 32 µg/mL (≈ 33.8 µM). The “MIC VRE (vanA)” value in assay [7] (ATCC 51559) is more than 256 µg/mL.

In the case of `CC(C)C[C@H]1NC(=O)[C@H](N)CSSC[C@H](C(N)=O)NC(=O)[C@@H]([C@H](C)O)NC(=O)[C@@H](C)NC(=O)CNC(=O)[C@@H]([C@H](C)O)NC(=O)[C@@H](CO)NC(=O)[C@@H](Cc2c[nH]c3ccccc23)NC1=O` [P12, CLWSTGATC] (H-[dC][dL][dW][dS][dT]G[dA][dT][dC]-NH2; disulfide 1-9), in assay [1] (ATCC 6633), the “MIC B. subtilis” value stood at 64 µg/mL (≈ 68.2 µM). Moreover, in assay [2] (ATCC 29121), the “MIC E. faecalis” value came to 128 µg/mL (≈ 136 µM). Further, in assay [3] (ATCC 43300), the “MIC MRSA” value amounted to 64 µg/mL (≈ 68.2 µM). In addition, in assay [4], the “MIC VRE (vanB)” value was more than 256 µg/mL. In assay [5] (ATCC 25992), the “MIC E. coli” value was more than 256 µg/mL. Also, the “MIC S. aureus” value in assay [6] (ATCC 6538) is 64 µg/mL (≈ 68.2 µM). The “MIC VRE (vanA)” value in assay [7] (ATCC 51559) was more than 256 µg/mL.

These data come from patent US20220211796A1, “PEPTIDE ANTIBIOTICS AND METHODS OF USE THEREOF” (priority 2019, published 2022).
